Measured values reported in patent US12390423B2 (priority 2019, dated 2025).

What was measured:
[1] = Treatment model of diet-induced obesity (DIO) in mice: body and fat pad weights; format: in vivo, C57BL/6J mice; details: HFD mice, AvoB 100 mg/kg b.w. oral gavage twice weekly for 5 weeks, vs HFD-control
Method: For the treatment study, twelve-week-old male C57BL/6J mice were purchased from Jackson Laboratory (Bar Harbor, ME) and allowed to acclimatize for 1 week. After acclimatization, mice received either a high-fat diet (HFD) (60% kcal from lard; Research Diet D12492; Research Diets, USA) or a standard diet (10-13% kcal from fat; Teklad 2014; Envigo, USA) for eight weeks. […] Animal weights were monitored twice weekly. At study completion, animals were euthanized (10-12 h into their dark cycle) via CO2 followed by exsanguination, after which tissue and blood was collected.

[2] = test system: pyruvate dehydrogenase (PDH); test: Pyruvate dehydrogenase (PDH) activity assay, gastrocnemius muscle lysates of DIO mice; format: in vivo, C57BL/6J mice; details: ad libitum HFD mice, AvoB 100 mg/kg b.w. twice weekly, endpoint
Method: After mice were euthanized, muscle tissues were freeze-clamped and flash-frozen in liquid nitrogen. The PDH activity from flash-frozen whole gastrocnemius muscle lysates was measured using a colorimetric microplate assay kit (ab109902, Abcam, Cambridge, MA, USA) following the manufacturer's protocol and as previously described (see reference number 12). Briefly, PDH proteins from whole gastrocnemius muscle lysates (lysed in the presence of 10 mM sodium fluoride (NaF) preserve the phosphorylated status of PDH or to determine native PDH activity as a result of HFD feeding) were immunocaptured on a microplate by loading equal amounts of protein for each sample. PDH activity was then determined spectrophotometrically by monitoring the reduction of NAD+ to NADH, coupled to the reduction of a reporter dye at an absorbance of 450 nm.

[3] = test system: C2C12 myotubes; test: Fatty acid oxidation ([1-14C]-palmitate) in C2C12 myotubes; format: cell-based, mouse; details: 25 μM AvoB, 0.5 mM palmitate-BSA/1 mM L-carnitine, 24 h
Method: FAO in cell lines was determined using established methods. […] [1-^14C]-palmitate was prepared and applied to cells as follows: purchased stock supplied in ethanol (PerkinElmer, MA, USA) was dried in vacuo and then re-suspended in a solution containing unlabeled carrier in BSA to yield a mixture of 7% BSA [w/v], 2.5 mM palmitate with [1-^14C]-palmitate at a final concentration of 10 μCi/mL. Following a 16 hour incubation at 37° C., the solution containing radiolabeled palmitate was diluted with respective serum free cell culture media (low glucose RPMI media for INS-1 (832/13) cells and low glucose DMEM for C2C12 myotubes) containing 1 mM L-carnitine to a final concentration of 0.3% BSA, 100 μM palmitate, and 0.4 μCi/mL [1-^14C]-palmitate. Following incubation of treated cells with [1-^14C]-palmitate, 400 μL of well media was transferred to acidification vials containing perchloric acid and capped with CO2 filter traps impregnated with 1M NaOH. […] The CO2 trap was transferred to scintillation vials containing 4 mL of scintillation fluid and complete FAO was quantified using a Tri-Carb 2910 TR liquid scintillation analyzer (PerkinElmer). The amount of radioactivity in the media was also determined after pelleting cells and debris (14,000×g, 10 min); this quantified acid soluble metabolites (ASMs), an indirect measure of incomplete FAO.

[4] = test system: C2C12 myotubes; test: High resolution respirometry in C2C12 myotubes; format: cell-based, mouse; details: 25 μM AvoB
Method: Cells treated with test compounds for 24 h were trypsinized, counted, and resuspended in phosphate buffer saline (PBS). High-resolution O2 consumption measurements were conducted in 2 ml of respiration medium (PBS, pH 7.5, stir speed 750 rpm) using the Oroboros Oxygraph-2k (Oroboros Instruments, Corp., Innsbruck, Austria) set to 37° C. with a gain of 2 in both chambers. Briefly, after the injection of 5 million treated INS-1 (832/13) cells or C2C12 myotubes per chamber, basal respiration was measured once steady-state respiratory flux was obtained; this represents coupled respiration fueled by available substrates from the incubation with test compounds. Uncoupled respiration was then measured following addition of the ATP synthase inhibitor oligomycin (0.25 μM). This was followed by measuring maximal respiratory rate by stepwise titration of carbonyl cyanide p-trifluoromethoxy phenyl hydrazone (FCCP; within 0.1-0.25 μM) in the presence of 1 mmol/L pyruvate. […] Data was recorded with DatLab software (Oroboros Instruments, Innsbruck, Austria), oxygen consumption at each step of the protocol was normalized to vehicle control and illustrated in histograms. For all HRR protocols, cell viability was determined after trypsinization and also after end of HRR runs via trypan blue cell staining and counting using a hemocytometer. […]

[5] = test system: INS-1 (832/13) cells; test: Cytosolic calcium determination (fluo-3AM) in INS-1 (832/13) cells; format: cell-based, rat; details: 0.5 mM palmitate, non-stimulatory glucose, AvoB 25 μM, ETO 100 μM, TMB-8 10 μM
Method: INS-1 (832/13) cells were treated as described for the FAO assays but also with metabolic modulators dichloroacetate (DCA) (1 mM) and trimetazidine (25 μM) as well as 10 μM endoplasmic reticulum calcium blocker 8-(N,N-Diethylamino)-octyl-3,4,5-trimethoxybenzoate HCl (TMB-8) (Sigma Aldrich) or 25 nM cyclosporin (Sigma Aldrich) in the presence of 0.5 mM palmitate/1 mM L-carnitine. Cytosolic calcium was measured in INS-1 (832/13) cells using fluo-3AM (Invitrogen, F1241) charged fluorescent dye that accumulates in the cytosol and emits green fluorescence after binding calcium ions. A stock solution of 10 mM fluo-3AM was diluted to 5 μM in fluo-3AM loading buffer (10 mM 4-(2-hydroxyethyl)-1-piperazineethanesulfonic acid (HEPES), 137 mM NaCl, […], 1 mM Na2HPO4, 5 mM glucose, and 0.5 mM MgCl2 (pH 7.4)]. After treatment, cells were incubated in fluo-3AM loading buffer for 30 min at 37° C. with gentle agitation after which cells were washed twice with PBS, trypsinized and collected for flow cytometry analysis. Cytosolic calcium was quantified by taking the mean green fluorescence values of live gated cells and normalizing to vehicle control.

In the case of avocatin B [AvoB], the “Gonadal and mesenteric fat pad (GFP and MFP) weights” value [1] is reported as “reductions in both gonadal and mesenteric fat pad (GFP and MFP) weights”, the “Mouse weight at study completion” value [1] is reported as “weighed significantly less than HFD-control mice” and the “Native PDH activity in gastrocnemius muscle” value [2] is reported as “restored to that of lean, STD mice”. For the same substance, the “Complete FAO ([1-14C]-palmitate oxidation to CO2)” value [3] was “inhibited complete FAO”, the “Incomplete FAO (ASM levels)” value [3] was “did not increase incomplete FAO” and the “Glucose oxidation by HRR after 10 mM glucose (metabolic flexibility)” value ([4]; 0.25 mM palmitate 24 h, then 10 mM glucose 15 min) was “increased”. For the same substance, the “Palmitate supported respiration (OCR, HRR)” value ([4]; 0.25 mM palmitate-BSA/1 mM L-carnitine, 24 h) was “inhibited palmitate supported basal and maximal-uncoupled respiration” and the “Cytosolic Ca2+ (Fluo-3AM)” value [5] was “able to reduce cytosolic Ca^2+”.
